Assay results as given in US7723329B2, “Substituted-3-sulfonylindazole derivatives as 5-hydroxytryptamine-6 ligands” (Wyeth LLC, priority 2005, dated 2010).
Counter-ions that a name gives are not always drawn.

molecular target: T1, human cloned 5-HT6 receptors (Homo sapiens, UniProt P50406); experiment: 5-HT6 binding affinity, [3H]-LSD displacement; details: membranes of Hela cells expressing human cloned 5-HT6 receptors; [3H]-LSD 3.0 nM; 120 minutes at room temperature
T1 construct: expressed in transfected cells; host or cells: HeLa cells
T1 sequence (P50406 whole entry): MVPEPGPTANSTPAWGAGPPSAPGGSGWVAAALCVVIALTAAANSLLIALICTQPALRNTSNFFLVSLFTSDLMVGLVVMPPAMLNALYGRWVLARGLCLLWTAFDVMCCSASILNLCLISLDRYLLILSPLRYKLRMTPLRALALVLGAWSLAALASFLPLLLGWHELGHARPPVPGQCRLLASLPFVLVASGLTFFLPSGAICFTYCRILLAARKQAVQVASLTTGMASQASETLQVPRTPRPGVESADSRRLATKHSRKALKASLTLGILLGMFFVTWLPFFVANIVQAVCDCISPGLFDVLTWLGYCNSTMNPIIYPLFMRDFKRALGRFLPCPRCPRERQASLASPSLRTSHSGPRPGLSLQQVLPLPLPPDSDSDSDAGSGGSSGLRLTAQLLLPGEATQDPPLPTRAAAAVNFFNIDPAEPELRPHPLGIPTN

SMILES | Ki [nM]
CN(C)CCN(C)Cc1ccc2[nH]nc(S(=O)(=O)c3cccc4ccccc34)c2c1 [Example 153, N,N, N′-Trimethyl-N′-{[3-(1-naphthylsulfonyl)-1H-indazol-5-yl]methyl}ethane-1,2-diamine] | 11 to 25
O=S(=O)(c1cccc2ccccc12)c1n[nH]c2ccc(CN[C@H]3CCNC3)cc12 [Example 154, (3S)—N-{([3-(1-Naphthylsulfonyl)-1H-indazol-5-yl]methyl}pyrrolidin-3-amine Hydrochloride] | 11 to 25
NCCNCc1ccc2[nH]nc(S(=O)(=O)c3cccc4ccccc34)c2c1 [Example 155, N{[3-(1-Naphthylsulfonyl)-1H-indazol-5yl]methyl}ethane-1.2-diamine] | 11 to 25
CN(C)CCOCc1ccc2[nH]nc(S(=O)(=O)c3cccc4ccccc34)c2c1 [Example 156, N,N-Dimethyl-2-{[3-(1-naphthylsulfonyl)-1H-indazol-5-yl]methoxy}ethanamine] | 0.01 to 10
NCCNc1ccc2[nH]nc(S(=O)(=O)c3cccc4ccccc34)c2c1 [Example 157, N1-[3-(Naphthalene-1-sulfonyl)-1H-indazol-5-yl]-ethane-1,2-diamine dihydrochloride] | 0.01 to 10
NCCC(=O)Nc1ccc2[nH]nc(S(=O)(=O)c3cccc4ccccc34)c2c1 [Example 158, 3-Amino-N-[3-(naphthalene-1-sulfonyl)-1H-indazol-5-yl]-propionamide hydrochloride] | 0.01 to 10
CC(N)CNc1ccc2[nH]nc(S(=O)(=O)c3cccc4ccccc34)c2c1 (centres unmarked) [Example 159, N1-[3-(Naphthalene-1-sulfonyl)-1H-indazol-5-yl]-propane-1,2-diamine hydrochloride] | 11 to 25
NCCNc1cccc2c(S(=O)(=O)c3cccc4ccccc34)n[nH]c12 [Example 161, N1-[3-(Naphthalene-1-sulfonyl)-1H-indazol-7-yl]-ethane-1,2-diamine dihydrochloride] | 11 to 25
CN(C)CCC(=O)Nc1cccc2c(S(=O)(=O)c3cccc4ccccc34)n[nH]c12 [Example 162, 3-Dimethylamino-N-[3-(naphthalene-1-sulfonyl)-1H-indazol-7-yl]-propionamide hydrochloride] | 0.01 to 10
O=C(CCN1CCCCC1)Nc1cccc2c(S(=O)(=O)c3cccc4ccccc34)n[nH]c12 [Example 163, N-[3-(Naphthalene-1-sulfonyl)-1H-indazol-7-yl]-3-piperidin-1-yl-propionamide hydrochloride] | 11 to 25
NCCC(=O)Nc1cccc2c(S(=O)(=O)c3cccc4ccccc34)n[nH]c12 [Example 164, 3-Amino-N-[3-(naphthalene-1-sulfonyl)-1H-indazol-7-yl]-propionamide hydrochloride] | 0.01 to 10
NCCC(=O)Nc1ccc2c(S(=O)(=O)c3cccc4ccccc34)n[nH]c2c1 [Example 165, 3-Amino-N-[3-(naphthalene-1-sulfonyl)-1H-indazol-6-yl]-propionamide hydrochloride] | 11 to 25
CCN(CC)CCC(=O)Nc1cccc2c(S(=O)(=O)c3cccc4ccccc34)n[nH]c12 [Example 166, 3-Diethylamino-N-[3-(naphthalene-1-sulfonyl)-1H-indazol-7-yl]-propionamide hydrochloride] | 26 to 35
O=C(CCN1CCCCC1)Nc1ccc2c(S(=O)(=O)c3cccc4ccccc34)n[nH]c2c1 [Example 167, N-[3-(Naphthalene-1-sulfonyl)-1H-indazol-6-yl]-3-piperidin-1-yl-propionamide hydrochloride] | 11 to 25
CN(C)CCC(=O)Nc1ccc2c(S(=O)(=O)c3cccc4ccccc34)n[nH]c2c1 [Example 168, 3-Dimethylamino-N-[3-(naphthalene-1-sulfonyl)-1H-indazol-6-yl]-propionamide hydrochloride] | 36 to 45
CCN(CC)CCC(=O)Nc1ccc2c(S(=O)(=O)c3cccc4ccccc34)n[nH]c2c1 [Example 169, 3-Diethylamino-N-[3-(naphthalene-1-sulfonyl)-1H-indazol-6-yl]-propionamide hydrochloride] | > 45
NCCNc1ccc2c(S(=O)(=O)c3cccc4ccccc34)n[nH]c2c1 [Example 170, N1-[3-(Naphthalene-1-sulfonyl)-1H-indazol-6-yl]-ethane-1,2-diamine dihydrochloride] | 11 to 25
CN(C)CCc1cccc2c(S(=O)(=O)c3ccccc3)n[nH]c12 [Example 171, N,N-Dimethyl-N-{2-[3-(phenylsulfonyl)-1H-indazol-7-yl]ethyl}amine hydrochloride] | 0.01 to 10
O=S(=O)(c1ccccc1)c1n[nH]c2c(CCNC3CC3)cccc12 [Example 172, N-{2-[3-(phenylsulfonyl)-1H-indazol-7-yl]ethyl}cyclopropanamine hydrochloride] | 11 to 25
CNCCc1cccc2c(S(=O)(=O)c3ccccc3)n[nH]c12 [Example 173, N-Methyl-N-{2-[3-(phenylsulfonyl)-1H-indazol-7-yl]ethyl}amine trifluoroacetate] | 0.01 to 10
NCCCCc1ccc2[nH]nc(S(=O)(=O)c3cccc4ccccc34)c2c1 [Example 189, {4-[3-(Naphthylsulfonyl)-1H-indazol-5-yl]butyl}amine hydrochloride] | 0.01 to 10

Other lines, results leading:

Ki [nM] | SMILES
11 to 25 | CN(C)CCc1ccc2[nH]nc(S(=O)(=O)c3ccccc3)c2c1 [Example 176, N,N-Dimethyl-N-{2-[3-(phenylsulfonyl)-1H-indazol-5-yl]ethyl}amine hydrochloride]
11 to 25 | CN(C)CCCc1ccc2[nH]nc(S(=O)(=O)c3ccccc3)c2c1 [Example 177, N,N-Dimethyl-N-{3-[3-(phenylsulfonyl)-1H-indazol-5-yl]propyl}amine trifluoroacetate]
11 to 25 | O=S(=O)(c1ccccc1)c1n[nH]c2ccc(CCCNC3CC3)cc12 [Example 178, N{3-[3-(Phenylsulfonyl)-1H-indazol-5-yl]propyl}cyclopropanamine trifluoroacetate]
> 45 | CC(C)NCCCc1ccc2[nH]nc(S(=O)(=O)c3ccccc3)c2c1 [Example 179, N-Isopropyl-N-{3-[3-(phenylsulfonyl)-1H-indazol-5-yl]propyl}amine trifluoroacetate]
11 to 25 | NCCCc1ccc2[nH]nc(S(=O)(=O)c3ccccc3)c2c1 [Example 180, {3-[3-(Phenylsulfonyl)-1H-indazol-5-yl]propyl}amine trifluoroacetate]
26 to 35 | NCCCCc1ccc2[nH]nc(S(=O)(=O)c3ccccc3)c2c1 [Example 181, {4-[3-(Phenylsulfonyl)-1H-indazol-5-yl]butyl}amine hydrochloride]
0.01 to 10 | CN(C)CCCc1ccc2[nH]nc(S(=O)(=O)c3cccc4ccccc34)c2c1 [Example 182, N,N-Dimethyl-N-{3-[3-(naphthylsulfonyl)-1H-indazol-5-yl]propyl}amine hydrochloride]
0.01 to 10 | O=S(=O)(c1cccc2ccccc12)c1n[nH]c2ccc(CN3CCNCC3)cc12 [Example 195, 3-(1-Naphthylsulfonyl)-5-(piperazin-1-ylmethyl)-1H-indazole]
0.01 to 10 | CN1CCN(Cc2ccc3[nH]nc(S(=O)(=O)c4cccc5ccccc45)c3c2)CC1 [Example 196]
0.01 to 10 | CC1CN(Cc2ccc3[nH]nc(S(=O)(=O)c4cccc5ccccc45)c3c2)CCN1 (centres unmarked) [Example 197]
0.01 to 10 | CC1CN(Cc2ccc3[nH]nc(S(=O)(=O)c4cccc5ccccc45)c3c2)CC(C)N1 (centres unmarked) [Example 198]
